Bounds are passed on as bounds.

In test [1] the test system is monoclonal antibody specific for human alpha-synuclein at position 115-122 (AFFiRiS3/9, A509). In words: In vitro inhibition assay (ELISA): peptide competes with binding of the antibody to the coated original epitope. The arrangement: species or system mouse. The conditions noted are these: for Inhibition: competition code, OD at 40 μg peptide compared to original peptide; for competition in inhibition ELISA: 40 μg peptide, compared to original peptide p4448, FIG. 3. Here is the method:
2. In Vitro Inhibition Assay (ELISA)
Different amounts of peptides (concentrations ranging from 40 μg to 0.3 μg (serial dilutions), as indicated in the respective figures) derived from Phage Display were incubated with the monoclonal antibody that was used for the screening procedure. Peptides diminishing subsequent binding of the antibody to the original human alpha-synuclein epitope (amino acids: 115-122 of human alpha-synuclein protein) coated on ELISA plates were considered as inhibiting in this assay.
Weak inhibition means more peptide is required to lower AB binding than with the original epitope; strong inhibition means similar peptide amounts are required for mimotope and original epitope for lowering AB binding. Mimotopes are compared to the original peptide as standard. OD at 40 μg peptide used in the assay is used to calculate the competition capacity compared to original peptide.
On the technique in general: In an ELISA, binding on a coated surface is turned into a signal by an enzyme label.

Test [2] has the same test system. Briefly: In vitro binding assay (ELISA): peptide-BSA on plate, incubated with the screening monoclonal antibody. Also noted: species or system mouse. The conditions noted are these: FIG. 1 and FIG. 2. From the text: 1. In Vitro Binding Assay (ELISA)
In test [3] the test system is injected peptide (peptide-BSA conjugate). Briefly: Mimotope-KLH vaccination of mice: serum titer against injected peptide (ELISA). The test is classed as in vivo, C57/Bl6 mice. To be noted: for titers upon vaccination of mice: FIG. 2 legend; for immune response against injected peptide: C57/Bl6 mice, 30 μg peptide-KLH s.c., alum, repeated vaccination. Here is the method: (§1) Inhibiting as well as non-inhibiting peptides were coupled to KLH and injected into mice (wildtype C57/Bl6 mice; subcutaneous injection into the flank) together with an appropriate adjuvant (aluminium hydroxide). Animals were vaccinated 4-6 times in biweekly intervals and sera were taken biweekly as well. Titers to injected peptides as well as to an irrelevant peptide were determined with every serum. Titers against the recombinant human alpha-synuclein protein and recombinant human beta-synuclein were determined starting with Serum 3 respectively. Pooled sera were tested against the original human alpha-synuclein epitope (aa115-122). In general sera were analysed by reaction against peptides coupled to Bovine Serum Albumin (BSA) and recombinant full length proteins which were immobilised on ELISA plates. Titers were determined using anti mouse IgG specific antibodies. For detailed results see FIGS. 4A, 4B, 5A and 5B.
(§2) Female C57/Bl6 mice, 5-6 mice per group, were subcutaneously immunized with 30 μg peptide coupled to KLH. Control groups were administered p4448-KLH conjugate. As adjuvant alum was used (always 1 mg per mouse). […] The in vitro ELISA assay to determine the antibody titer was performed with sera of single mice or pooled sera (see FIGS. 5A and 5B) after each vaccination in a two week interval (see FIGS. 4A, 4B, 5A and 5B, respectively). The wells of the ELISA plate were coated with mimotope-BSA conjugate and an irrelevant peptide-BSA conjugate (negative control). The positive control was performed by reaction of the parental antibody with the respective mimotope-BSA conjugate. The detection was performed with anti-mouse IgG. Additionally, recombinant proteins were immobilised on ELISA plates and sera reacted accordingly.

The subject of test [4] is recombinant human alpha-synuclein protein. Briefly: Mimotope-KLH vaccination of mice: serum titer against recombinant alpha-synuclein (ELISA). Type of test: in vivo, C57/Bl6 mice. The conditions noted are these: pooled sera after 4 vaccinations; FIG. 5B. On the procedure: as §1, §2
A further test has as its system irrelevant peptide p1253. In words: Mimotope-KLH vaccination of mice: serum titer against irrelevant peptide (ELISA). The test is classed as in vivo. The conditions noted are these: C57/Bl6 mice, alum. Here is the method:
as §1, §2

Test [5] relates to recombinant human beta-synuclein. In words: Mimotope-KLH vaccination of mice: serum titer against recombinant beta-synuclein (ELISA). Type of test: in vivo, C57/Bl6 mice. The conditions noted are these: pooled sera after 4 vaccinations; FIG. 5B. On the procedure:
as §1, §2

Test [6] has as its system human a-syn on brain sections of mice overexpressing human a-syn. Briefly: In situ testing: immunohistochemistry with mimotope-induced sera on mouse brain sections. To be noted: for potential to induce a-syn specific antibodies: vaccines based on the peptide. On the procedure:
Selected sera eliciting an a-syn cross reactivity were also tested for the ability to detect human a-syn on mouse brain sections in situ. For detailed results see FIGS. 6A, 6B and 6C.
Mimotopes eliciting an a-syn specific immune response can also detect a-syn immunoreactive inclusions in transgenic mouse brain tissue. As depicted in FIGS. 6A, 6B and 6C, sera derived from mimotope vaccinated animals are able to stain a-syn positive structures present on mouse brain sections from animals overexpressing human a-syn. Briefly, sera positive for human a-syn reactivity in ELISA have been used for immunohistochemistry (IHC). Paraffin embedded […] sections of mouse brain, mounted on Superfrost Plus glass slides, were subjected to IHC. Sections were incubated with sera (dilution 1:100 and 1:400 in PBS) and subsequently stained according to standard protocols for immunohistochemistry using VECTASTAIN™ ABC Systems (which is an Avidin-Biotin Complex Immunohistochemical Staining Kit from Vector Laboratories), DAB and MOM blocking (all reactions have been performed using commercially available reagents obtained from Vector labs respectively and have been performed according to manufacturer's protocols). Counterstaining was performed with Haematoxylin. Slides were mounted in Entellan and subsequently documented using conventional brightfield microscopy. A monoclonal antibody specific for human a-syn (LB509, Covance) has been used as a positive control for synuclein detection at a final dilution of 1/250.

Take CDVPVLPDN [p4493]: in test [1], the Inhibition is reported as 2 (strong inhibition (as original epitope; OD of 40 μg peptide below 2 times of original peptide)).
The same measure, in the same setting: the figure for CDTPVYPDN [p4494] is 2 (strong inhibition (as original epitope; OD of 40 μg peptide below 2 times of original peptide)).
Consider CDRPVAPEG [p4553], for which, in test [2], the “binding to / detection by the monoclonal antibody in ELISA” value (“binding to / detection” below) was “strong binding”. In addition, the “titers upon vaccination of mice” value in test [3] was > 1/20000.
CDHPVHPDS [p4554]: the Inhibition in test [1] is recorded as 1 (Weaker than original epitope (OD of 40 μg peptide below 5 times of original peptide)).
Still for that read-out and setting: the figure for CDMPVLPDG [p4497] is 1 (Weaker than original epitope (OD of 40 μg peptide below 5 times of original peptide)).
The same measure, in the same setting: the figure for CDQPVLPDG [p4496] is 1 (Weaker than original epitope (OD of 40 μg peptide below 5 times of original peptide)); for CDQPVLPDN [p4462] it is 2 (strong inhibition (as original epitope; OD of 40 μg peptide below 2 times of original peptide)).
For CDRPVTPDN [p4491], in test [1], the “competition in inhibition ELISA” value is “show similar competition as the original peptide p4448” and the Inhibition is listed as 7.
CDHPVTPDR [p4559]: in test [1], the Inhibition was 1 (Weaker than original epitope (OD of 40 μg peptide below 5 times of original peptide)).
Turning to DMPVDPGSC [p4451], the “binding to / detection” value in test [2] is given as “are not detected”.
Consider CDMPVLPDN [p4463], for which the “reactivity of induced sera with alpha-synuclein” value in test [4] is given as “show titers against alpha-synuclein”. The Inhibition in test [1] is 2 (strong inhibition (as original epitope; OD of 40 μg peptide below 2 times of original peptide)).
As to CDSPVLPDN [p4464], in test [1], the Inhibition is given as 2 (strong inhibition (as original epitope; OD of 40 μg peptide below 2 times of original peptide)).
Turning to CEMPVDPDN [P4648], the Inhibition in test [1] is recorded as 1 (Weaker than original epitope (OD of 40 μg peptide below 5 times of original peptide)).
Same read-out and setting: the figure for CDSPVVPDN [p4564] is 1 (Weaker than original epitope (OD of 40 μg peptide below 5 times of original peptide)); for CDLPVTPDR [p4566] it is 1 (Weaker than original epitope (OD of 40 μg peptide below 5 times of original peptide)).
In the case of CDTPVLAEN [p4467], in the test with irrelevant peptide p1253, the “immune response against unrelated sequence p1253” value was “failed to induce an unspecific immune response”. For the same substance, in test [3], the “immune response against injected peptide” value is given as “elicited immune responses against the injected peptide”.
For DMPVDPDNC [p4449], the “binding to / detection” value in test [2] is given as “are detected by the antibody”.
CDMPVSPDR [p4555]: the Inhibition in test [1] was 1 (Weaker than original epitope (OD of 40 μg peptide below 5 times of original peptide)).
For the substance CDAPVYPDG [p4570], the Inhibition in test [1] was 1 (Weaker than original epitope (OD of 40 μg peptide below 5 times of original peptide)).
Same read-out and setting: the figure for DQPVLPDC [p4640] is 2 (strong inhibition (as original epitope; OD of 40 μg peptide below 2 times of original peptide)); for DMPVLPDC [p4641] it is 2 (strong inhibition (as original epitope; OD of 40 μg peptide below 2 times of original peptide)).
On to CHDRPVTPDN [p4490], for which, in test [1], the “competition in inhibition ELISA” value is recorded as “show similar competition as the original peptide p4448” and the Inhibition is recorded as 2 (strong inhibition (as original epitope; OD of 40 μg peptide below 2 times of original peptide)).
Take CDMPVDPGS [p4450]: the “binding to / detection” value in test [2] is listed as “are not detected”.
Regarding CDRPVQPDR [p4571], the Inhibition in test [1] was 1 (Weaker than original epitope (OD of 40 μg peptide below 5 times of original peptide)).
In the case of CDQPVYPDI [p4557], the “binding to / detection” value in test [2] was “weaker binding than the original peptide p4448”. For the same substance, the Inhibition in test [1] is on record as 1 (Weaker than original epitope (OD of 40 μg peptide below 5 times of original peptide)). Moreover, the “titers upon vaccination of mice” value in test [3] is listed as > 1/20000.
Regarding DMPVDPDN, the “reactivity of induced sera with beta-synuclein” value in test [5] is listed as “did not distinguish between the two recombinant synuclein proteins”.
For CDSPVWAEN [p4466], in the test on irrelevant peptide p1253, the “immune response against unrelated sequence p1253” value is on record as “failed to induce an unspecific immune response”. For the same substance, the “immune response against injected peptide” value in test [3] is “elicited immune responses against the injected peptide”.
Take CDMPVLPD [p4457]: the “reactivity of induced sera with alpha-synuclein” value in test [4] is given as “show titers against alpha-synuclein”.
CDTPVLPDS [p4561]: the Inhibition in test [1] was 2 (strong inhibition (as original epitope; OD of 40 μg peptide below 2 times of original peptide)).
With CDQPVLPD [p4456], the “immune response against unrelated sequence p1253” value with irrelevant peptide p1253 was “failed to induce an unspecific immune response”. Besides, the “potential to induce a-syn specific antibodies” value (shortened to “potential”) in test [6] is reported as “potential to induce a-syn specific antibodies”. Also, the “immune response against injected peptide” value in test [3] was “elicited immune responses against the injected peptide”.
As to CDMPVWPDG [p4569], the Inhibition in test [1] is reported as 1 (Weaker than original epitope (OD of 40 μg peptide below 5 times of original peptide)).
In the case of “p4447: Human beta-syn (Full length; NCBI Acc. No. NP_001001502)”, the “binding to / detection” value in test [2] is listed as “are not detected”.
For CYDRPVQPDR [p4572], in test [1], the Inhibition is reported as 1 (Weaker than original epitope (OD of 40 μg peptide below 5 times of original peptide)).
Still for that read-out and setting: as for CDSPVHPDT [p4567], the figure is 1 (Weaker than original epitope (OD of 40 μg peptide below 5 times of original peptide)).
In the case of CDMPVTPDT [p4562], the “potential” value in test [6] was “potential to induce a-syn specific antibodies”. The Inhibition in test [1] was 2 (strong inhibition (as original epitope; OD of 40 μg peptide below 2 times of original peptide)).
As for CDTPVIPDN [p4495], in test [1], the Inhibition was 1 (Weaker than original epitope (OD of 40 μg peptide below 5 times of original peptide)).
The same measure, in the same setting: as for CDAPVTPDT [p4563], the figure is 1 (Weaker than original epitope (OD of 40 μg peptide below 5 times of original peptide)).
Take CDSPVLPDG [p4498]: the “a-syn staining by induced serum in immunohistochemistry” value in test [6] (murine hippocampus, human a-syn transgenic, sera diluted 1:100 and 1:400, FIG. 6C) was “specific a-syn staining similar to the staining present in FIG. 6A”. For the same substance, the “potential” value in test [6] is on record as “potential to induce a-syn specific antibodies”. Further, the Inhibition in test [1] is given as 1 (Weaker than original epitope (OD of 40 μg peptide below 5 times of original peptide)).
CDRPVYPDI [p4558]: the Inhibition in test [1] is given as 2 (strong inhibition (as original epitope; OD of 40 μg peptide below 2 times of original peptide)).
As to CDNPVHPEN [p4492], the “competition in inhibition ELISA” value in test [1] is listed as “do not show competition”.

The values are drawn from patent US12653872B2, “Mimotopes of alpha-synuclein and vaccines thereof for the treatment of synucleinopathy” (AC Immune SA, priority 2008, dated 2026).
